{
  "source": "patent US4410527A",
  "about": "“Substituted thienobenzodiazepinones and salts thereof” (Dr. Karl Thomae Gesellschaft mit beschrankter Haftung, priority 1982, dated 1983)",
  "key": {"[1]": {"tested_on": "oxotremorine-induced secretion of saliva (muscarinic receptors)", "test": "Oxotremorine test: inhibition of oxotremorine-induced secretion of saliva", "type": "in vivo, rat (female albino, Crl:COBS-CD (SD) BR)", "details": "iv, 0.25 h; i.v., rat, 15 minutes before 0.083 mg/kg i.v. oxotremorine; read-out: Oxotremorine test Inhibition of salivation ED50", "from_the_text": "(§1) Investigation of the Selectivity of the Antimuscarinic Activity\n(§2) Oxotremorine, a specific agonist for muscarinic receptors, produces lesions in the mucous membrane of the stomach in rats and increases their secretion of saliva. This test method was chosen so that any selective activity of an antimuscarinic substance on the stomach could be identified.\n(§3) Ten female albino rats (of the Crl:COBS-CD (SD) BR strain) with a body weight of from 120 to 150 gm were used in each treatment group and were kept without food for 24 hours before the start of the test, but given free access to drinking water.\n(§4) In order to determine, in preliminary tests, the muscarinic effect of oxotremorine on each of the symptoms studied, a dosage/activity curve was drawn up with at least three dosages for each symptom.\n(§5) When testing the antimuscarinic substances, the dosage of oxotremorine which triggered the symptom in question in 90 to 100% of the animals in the preliminary tests was used.\nSecretion of saliva: 0.083 mg/kg i.v.\nEach antimuscarinic substance was administered intravenously in uniformly graduated doses 15 minutes before the oxotremorine was administered. Control groups were given corresponding quantities of the solvent and suspending agent instead of the test substance. […]\n(§6) The ED50 values were determined using the method described by LITCHFIELD and WILCOXON [J. Pharmacol. Exp.Ther. 96, 99, (1949)]."}, "[2]": {"biological_target": "muscarinic receptors (cerebral cortex)", "test": "Binding to muscarinic receptors, 3H-N-methylscopolamine displacement, cerebral cortex", "parameters": "species or system rat (male Sprague-Dawley)", "details": "rat cerebral cortex homogenate 1:3000, 0.3 n molar 3H-NMS, pH 7.4, 30° C., 45 minutes; read-out: Receptor binding tests IC50 Cortex", "experimental": "(§7) 2. Studies of Binding to Muscarinic Receptors: Determination of the IC50 value\n(§8) The organ donors were male Sprague-Dawley rats with a body weight of from 180 to 220 gm. After the heart, stomach and cerebral cortex had been removed, the remainder of the operation was carried out in ice-cold Hepes-HCl buffer (pH 7.4; 100 m molar NaCl, 10 m molar MgCl2). The smooth muscle of the fundus of the stomach was separated from the mucous membrane of the stomach and subjected to preliminary homogenization. The whole heart was cut up with scissors. All the organs were then homogenized in a Potter apparatus.\n(§9) For the binding test, the homogenized organs were diluted as follows:\n(§10) The homogenized organ preparations were incubated at a specific concentration of the radioligand and with a series of concentrations of the non-radioactive test substances in an Eppendorf centrifuge tube at 30° C. The duration of incubation was 45 minutes. 0.3 n molar ^3 H-N-methylscopolamine (^3 H-NMS) was used as the radioligand. After incubation had been brought to an end by centrifuging at 14,000 g, the radioactivity in the pellet was determined. It represents the sum of the specific and non-specific binding of ^3 H-NMS. The proportion of non-specific binding was defined as the radioactivity which was bound in the presence of 1μ molar quinuclidinyl benzylate. Four measurements were taken in each case. The IC50 values of the nonlabelled test substances were determined graphically. They represent the concentration of test substance at which the specific binding of ^3 H-NMS to the muscarinic receptors in the various organs was inhibited by 50%."}, "[3]": {"biological_target": "T1, muscarinic receptors (heart) (Rattus norvegicus, UniProt P10980)", "T1 construct": "All the organs were then homogenized in a Potter apparatus; from tissue; host or cells: whole heart of male Sprague-Dawley rats, homogenate diluted 1:250", "T1 sequence (P10980 1-466)": "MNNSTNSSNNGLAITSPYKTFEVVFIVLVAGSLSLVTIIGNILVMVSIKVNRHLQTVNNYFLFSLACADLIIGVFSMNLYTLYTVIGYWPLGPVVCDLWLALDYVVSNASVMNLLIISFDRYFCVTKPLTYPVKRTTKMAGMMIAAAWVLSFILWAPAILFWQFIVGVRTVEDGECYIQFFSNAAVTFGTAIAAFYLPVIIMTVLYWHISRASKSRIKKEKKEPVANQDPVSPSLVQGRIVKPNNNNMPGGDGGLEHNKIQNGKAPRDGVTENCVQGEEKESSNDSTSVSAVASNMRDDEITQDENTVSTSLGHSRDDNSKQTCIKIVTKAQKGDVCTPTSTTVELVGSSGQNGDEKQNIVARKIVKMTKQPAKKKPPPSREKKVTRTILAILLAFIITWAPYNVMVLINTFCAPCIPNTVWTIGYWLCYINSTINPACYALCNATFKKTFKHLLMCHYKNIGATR", "test": "Binding to muscarinic receptors, 3H-N-methylscopolamine displacement, whole heart", "parameters": "species or system rat (male Sprague-Dawley)", "details": "rat whole heart homogenate 1:250, 0.3 n molar 3H-NMS, pH 7.4, 30° C., 45 minutes; read-out: Receptor binding tests IC50 Heart", "experimental": "as §7, §8, §9, §10"}, "[4]": {"tested_on": "oxotremorine-induced lesions in mucous membrane of stomach (muscarinic receptors)", "test": "Oxotremorine test: protection against oxotremorine-induced lesions of the gastric mucous membrane (anti-ulcerogenic effect)", "type": "in vivo, rat (female albino, Crl:COBS-CD (SD) BR)", "details": "iv, rat, 0.62 mg/kg i.v. oxotremorine, 1 mg/kg oral neostigmine; for ED50: ED50, i.v.; for ED70: ED70, i.v.", "from_the_text": "as §1, §2, §3, §4, §5\nLesion in mucous membrane of stomach: 0.62 mg/kg i.v.\nEach antimuscarinic substance was administered intravenously in uniformly graduated doses 15 minutes before the oxotremorine was administered. Control groups were given corresponding quantities of the solvent and suspending agent instead of the test substance.\nas §6\nThe effects on lesions of the mucous membrane of the stomach were evaluated as follows:\nThe lesions of the gastric mucous membrane were produced by intravenous injection of 0.62 mg/kg of oxotremorin 30 minutes after the oral administration of 1 mg/kg of neostigmine (a cholinesterase inhibitor). 60 minutes after the administration of the neostigmine, the animals were killed, the stomachs were removed, opened and examined for the presence of any lesions in the mucous membrane. The protective effect of the test substances was expressed as the percentage inhibition (percentage of animals without lesions). The ED50 and ED70 values were determined using the method of LITCHFIELD and WILCOXON (supra)."}, "[5]": {"test": "Mydriasis: effect on pupil size in rats", "details": "in vivo, iv, rat, pupil size observed for 10 minutes", "experimental": "The effect of the test substances on the pupil size in rats was investigated as follows:\nThe substances were administered intravenously to groups of 10 animals in at least three uniformly graduated doses. […] The percentage of test animals in which mydriasis occurred was determined. The ED50 values were again determined using the method of LITCHFIELD and WILCOXON (supra)."}, "[6]": {"biological_target": "muscarinic receptors (smooth muscle of the fundus of the stomach)", "test": "Binding to muscarinic receptors, 3H-N-methylscopolamine displacement, smooth muscle of fundus of stomach", "parameters": "species or system rat (male Sprague-Dawley)", "details": "rat stomach fundus smooth muscle homogenate 1:100, 0.3 n molar 3H-NMS, pH 7.4, 30° C., 45 minutes; read-out: Receptor binding tests IC50 Smooth muscle fundus of stomach", "experimental": "as §7, §8, §9\nSmooth muscle of the fundus of the stomach--1: 100\nas §10"}},
  "data": [
    {"smiles": "CN1CCC(OC(=O)N2c3ccccc3NC(=O)c3cscc32)CC1", "note": "[A, 4,9-Dihydro-4-{[(1-methyl-4-piperidinyl)oxy]carbonyl}-10H-thieno[3,4-b][1,5]benzodiazepin-10-one]", "values": [
      {"measurement": "ED50", "setting": "[1]", "result": 0.1, "unit": "mg/kg"},
      {"measurement": "IC50", "setting": "[2]", "result": 40, "unit": "nM"},
      {"measurement": "IC50", "setting": "[3]", "result": 180, "unit": "nM"},
      {"measurement": "ED50", "setting": "[4]", "result": 0.017, "unit": "mg/kg"},
      {"measurement": "ED70", "setting": "[4]", "result": 0.025, "unit": "mg/kg"},
      {"measurement": "ED50 at 10 min", "setting": "[5]", "result": 0.11, "unit": "mg/kg"},
      {"measurement": "IC50", "setting": "[6]", "result": 200, "unit": "nM"}
    ]},
    {"smiles": "CN1CCC(NC(=O)N2c3ccccc3NC(=O)c3cscc32)CC1", "note": "[B, 4,9-Dihydro-4-{[(1-methyl-4-piperidinyl)amino]carbonyl}-10H-thieno[3,4-b][1,5]benzodiazepin-10-one]", "values": [
      {"measurement": "ED50", "setting": "[1]", "result": 0.04, "unit": "mg/kg"},
      {"measurement": "IC50", "setting": "[2]", "result": 30, "unit": "nM"},
      {"measurement": "IC50", "setting": "[3]", "result": 220, "unit": "nM"},
      {"measurement": "ED50", "setting": "[4]", "result": 0.017, "unit": "mg/kg"},
      {"measurement": "ED70", "setting": "[4]", "result": 0.044, "unit": "mg/kg"},
      {"measurement": "ED50 at 10 min", "setting": "[5]", "result": 0.037, "unit": "mg/kg"},
      {"measurement": "IC50", "setting": "[6]", "result": 300, "unit": "nM"}
    ]},
    {"smiles": "CN1CCN(NC(=O)N2c3ccccc3NC(=O)c3cscc32)CC1", "note": "[C, 4,9-Dihydro-4-{[(4-methyl-1-piperazinyl)amino]carbonyl}-10H-thieno[3,4-b][1,5]benzodiazepin-10-one]", "values": [
      {"measurement": "IC50", "setting": "[2]", "result": 20, "unit": "nM"},
      {"measurement": "IC50", "setting": "[3]", "result": 90, "unit": "nM"},
      {"measurement": "ED70", "setting": "[4]", "result": 0.019, "unit": "mg/kg"},
      {"measurement": "ED50 at 10 min", "setting": "[5]", "result": 0.03, "unit": "mg/kg"},
      {"measurement": "IC50", "setting": "[6]", "result": 200, "unit": "nM"}
    ]}
  ]
}
